The text below walks through data of patent EP0330218B1, “Inhibitors of lysyl oxidase” (MERRELL DOW PHARMACEUTICALS INC., priority 1988, dated 1989).

For this assay, the target named is T1, Lysyl oxidase (Bos taurus, UniProt P33072).
T1 construct: The supernatant with lysyl oxidase activity is saved; from tissue; host or cells: bovine aorta (4 M urea extract)
T1 sequence (P33072 170-418): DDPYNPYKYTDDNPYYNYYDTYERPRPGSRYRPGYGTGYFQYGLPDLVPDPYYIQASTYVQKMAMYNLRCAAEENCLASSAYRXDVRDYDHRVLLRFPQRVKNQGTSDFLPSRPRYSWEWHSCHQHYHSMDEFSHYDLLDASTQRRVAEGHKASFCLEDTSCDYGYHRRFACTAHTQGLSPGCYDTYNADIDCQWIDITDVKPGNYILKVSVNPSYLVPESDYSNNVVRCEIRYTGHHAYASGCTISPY
The experiment in a line: Lysyl oxidase inhibition assay (fluorometric, cadaverine substrate, homovanillic acid/horseradish peroxidase). The format is biochemical. Conditions: lysyl oxidase preparation from bovine aorta, 10 minutes at 55°C, borate buffer pH = 8.2, read-out: IC₅₀. The procedure: Lysyl oxidase preparation is obtained from bovine aorta by the procedures modified from M. A. Williams and H. M. Kagan, Anal. Biochem. 149, 430 - 437 (1985) and H. M. Kagan and K. A. Sullivan, Methods in Enzyml. 82, 637 - 650 (1982). The aorta is obtained fresh on the day of the enzyme preparation and is maintained at 4°C for the duration of its use in the experiments. The aorta is ground fine and is homogenized for 90 seconds in buffer (2.5 ml of a buffer consisting of 16 mM potassium phosphate and 1 mM phenylmethylsulfonyl fluoride/g of tissue) with 0.15 M NaCl added, then the mixture is centrifuged (20 minutes at 11,000 x g). The homogenization followed by centrifugation procedure is repeated with buffer plus 0.15 M NaCl, buffer alone, and buffer plus 1 M urea. After homogenization in 1 M urea, the mixture is stirred for 1 hour prior to centrifugation. The resulting pellet is homogenized in buffer plus 4 M urea, stirred for 18 hours, and centrifuged. The supernatant with lysyl oxidase activity is saved. The tissue is homogenized in buffer plus 4 M urea, stirred overnight, and centrifuged twice more. The supernatants with lysyl oxidase activity are saved.
The assay is adopted from that of P. C. Trackman, et al., Anal. Biochem. 113, 336 - 342 (1981). Each assay consists of two tubes, one that contains 0.2 mM β-aminopropionitrile, BAPN, from the start and one to which BAPN is added to quench the reaction. Lysyl oxidase preparation (0.150 ml), urea (0.300 ml, 4 M), buffer (0.930 ml, 200mM borate at pH = 8.2), homovanillic acid (0.020 ml of 50 mM solution), and horseradish peroxidase (0.010 ml of Sigma Type II at 5 mg/ml protein) are incubated for 2 minutes at 55°C in a test tube. Cadaverine (0.100 ml of 150 mM) and test compound, if any, is added and the incubation continued at 55°C for an additional 10 minutes. The test tubes containing this mixture are then cooled in a ice bath after adding BAPN to any tubes not containing it. The difference in fluorescence (excitation 315 nm and emission 425 nm) between corresponding tubes that received BAPN at 0 minutes and at 10 minutes is a measure of enzyme activity. A standard curve to determine the amount of cadaverine converted by lysyl oxidase is prepared as follows. Assay mixtures containing BAPN are made up as described and known amounts of hydrogen peroxide are added simultaneously with cadaverine and the fluorescence changes after 10 minutes reaction are determined.
Using this method the lysyl oxidase inhibiting activity expressed as IC₅₀ (inhibitory concentration), that is the concentration of test compound required to inhibit the enzyme activity by 50 per cent, was determined for various compounds of this invention.

Turning to `CC(C)C/C(=C\F)CN` [(E)-2-Isobutyl-3-fluoroallylamine], the IC50 was determined as 10 nM. Take `CC(C)C/C(=C\Cl)CN` [(E)-2-Isobutyl-3-chloroallylamine]: the IC50 came out at 100 nM.

Consider `NC/C(=C/Cl)CCc1ccccc1` [(E)-2-Phenethyl-3-chloroallylamine], for which the IC50 turned out to be 10 nM. In the case of `CCNC/C(=C/F)c1ccc(OC)c(OC)c1` [(E)-N-Ethyl-2-(3,4-dimethoxyphenyl)-3-fluoroallylamine], the IC50 was 1000 nM. The figure for `NC/C(=C/F)c1cccs1` [(Z)-2-(2-Thienyl)-3-fluoroallylamine] is 1 nM; for `NC/C(=C/F)c1ccccc1` [(E)-2-Phenyl-3-fluoroallylamine] it is 1 nM.

With `NC/C(=C/Cl)c1ccccc1` [(E)-2-Phenyl-3-chloroallylamine], the IC50 amounted to 100 nM.

For the compound `NC/C(=C/F)COc1ccc(Cl)c(Cl)c1` [(Z)-2-(3,4-Dichlorophenoxymethyl)-3-fluoroallylamine], the IC50 is 1 nM. As for `COc1ccc(/C(=C\F)CN)cc1OC` [(E)-2-(3,4-Dimethoxyphenyl)-3-fluoroallylamine], the IC50 came to 100 nM. Regarding `COc1ccc(CCC/C(=C\F)CN)cc1OC` [(E)-2-(3,4-Dimethoxyphenylpropyl)-3-fluoroallylamine], the IC50 stood at 0.1 nM. For the compound `NC/C(=C/F)CCc1ccc(F)cc1` [(E)-2-(4-Fluorophenethyl)-3-fluoroallylamine], the IC50 was found to be 0.1 nM. For `NC/C(=C\F)CSc1ccccc1` [(E)-2-(Thiophenoxymethyl)-3-fluoroallylamine], the IC50 turned out to be 0.1 nM.

In the case of `CCCCCCCCCCC/C(=C\F)CN` [(E)-2-Undecyl-3-fluoroallylamine], the IC50 is 100 nM.
